Laboratory results taken from paper PMC2975748 (Journal of molecular and cellular cardiology, 2010).

Target: cardiac troponin C (cTnC), regulatory N-domain (cNTnC) (Homo sapiens, UniProt P19429+P63316)
Assay: 1H, […]-HSQC NMR titration
Type: binding

cardiac troponin C (cTnC), regulatory N-domain (cNTnC), sequence (P63316 1-89): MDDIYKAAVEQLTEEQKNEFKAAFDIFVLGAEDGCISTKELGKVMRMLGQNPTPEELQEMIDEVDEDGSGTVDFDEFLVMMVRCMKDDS
cardiac troponin C (cTnC), regulatory N-domain (cNTnC), sequence (P19429 145-164): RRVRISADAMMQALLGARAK

- Kd: 2.82 ± 0.48 mM
SMILES: O=C(O)Cc1ccc(-c2ccc(F)cc2F)cc1 [dfbp, 2’ ,4’-difluoro(1,1’-biphenyl)-4-yl acetic acid]
